# Measurements as given in US9579407B2, “Radiolabeled compounds and their use as radiotracers for quantitative imaging of phosphodiesterase (PDE10A) in mammals” (TAKEDA PHARMACEUTICAL COMPANY LIMITED, priority 2011, dated 2017).
# How the values were obtained:
# [1] = Plasma metabolite analysis (parent fraction) during PET, [11C]compound; assay type: in vivo, rhesus monkeys; settings: venous plasma, i.v.
# Method: (§1) PET measurements were performed with the High Resolution Research Tomograph system (HRRT) (Siemens Molecular Imaging) using two rhesus monkeys with body weight of 4450 g and 5000 g. The monkeys were maintained under gas anesthesia of sevoflurane, oxygen, and medical air during PET measurements. 123-min dynamic brain PET data were acquired in List mode after 150 and 162 MBq of [^11C] compound of Example 2 and 159 and 162 MBq of [^11C] compound of Example 3 were injected intravenously. List-mode data were reconstructed using the ordinary Poisson-3D-ordered subset expectation maximization (OP-3D-OSEM) algorithm, with 10 iterations and 16 subsets including modelling of the point spread function (PSF). During PET acquisition, venous blood sampling was performed for the metabolite analysis.
# (§2) Regions of interest (ROIs) for Caudate, Putamen, Nucleus Accumbens, Thalamus, Cerebellum, Frontal cortex, Temporal cortex, and whole brain were delineated on MRI/PET coregistered images using PMOD software (v3.1 PMOD Technologies Ltd. Zurich, Switzerland). Time activity curves were generated for these regions. The uptake was expressed as % ID (=total radioactivity in the brain (MBq)*100/injected radioactivity (MBq)) or % SUV (=radioactivity in the region (MBq/cc)*100/(injected radioactivity (MBq)/Body weight (g))). Metabolite fraction in the plasma was measured by a radio LC analysis. The results are shown in FIGS. 3, 4, 5, 6, 7, 8, 9 and 10.
# [2] = PET brain uptake (whole brain and regional), [11C]compound; assay type: in vivo, rhesus monkeys; settings: for regional brain uptake: regions of interest on MRI/PET coregistered images; for time at which whole brain uptake decreased to half / time at which whole brain uptake reached peak / whole brain uptake at the peak: i.v.; for time at which whole brain uptake reached peak: 123-min PET; for whole brain uptake at the peak: % ID = total radioactivity in the brain*100/injected radioactivity
# Method: as §1
# (§3) T1-weighted MR images were acquired with an MRI system GE 1.5 T Signa unit (Milwaukee, Wis., USA). The T1 sequence was a 3-D SPGR protocol with the following settings: repetition time (TR) 21 ms, flip angle 35°, FOV 12.8, matrix 256×256×128, 128×1.0 mm slices.
# as §2
# [3] = system: PDE10A; assay: PET specific radioligand binding in putamen (PDE10A rich region) vs cerebellum, [11C]compound; assay type: in vivo, rhesus monkeys; settings: for ratio of the specific binding between the uptake in the target region and the uptake in the cerebellum: increased up to, during 123 min PET measurements; for time of peak of specific binding in Putamen: uptake of the putamen minus the cerebellum
# Method: (§4) Since the compounds of the present invention show efficacy exhibition, they are useful as PET radioligands of PDE10A.
# as §1, §2
# [4] = PET brain uptake (whole brain and regional), [18F]compound; assay type: in vivo, cynomolgus monkeys; settings: for regional brain uptake: regions of interest on MRI/PET coregistered images; for time at which whole brain uptake decreased to half / time at which whole brain uptake reached peak / whole brain uptake at the peak: i.v.; for time at which whole brain uptake reached peak: 180-min PET; for whole brain uptake at the peak: % ID = total radioactivity in the brain*100/injected radioactivity
# Method: (§5) PET measurements were performed with the High Resolution Research Tomograph system (HRRT) (Siemens Molecular Imaging) using three cynomolgus monkeys with body weight of 3730 g to 4845 g. The monkeys were maintained under gas anesthesia of sevoflurane, oxygen, and medical air during PET measurements.
# (§6) 180-min dynamic brain PET data were acquired in List mode after 148 and 157 MBq of [^18F]compound of Example 119 and 159 and 163 MBq of [^18F]compound of Example 120 were injected intravenously. List-mode data were reconstructed using the ordinary Poisson-3D-ordered subset expectation maximization (OP-3D-OSEM) algorithm, with 10 iterations and 16 subsets including modelling of the point spread function (PSF). During PET acquisition, venous blood sampling was performed for the metabolite analysis.
# as §3
# as §2, with “(v3.2PMOD” for “(v3.1 PMOD”, “13, 14, 15, 16, 17, 18, 19” for “3, 4, 5, 6, 7, 8, 9”, “20.” for “10.”
# [5] = system: PDE10A; assay: PET specific radioligand binding in putamen (PDE10A rich region) vs cerebellum, [18F]compound; assay type: in vivo, cynomolgus monkeys; settings: for ratio of the specific binding between the uptake in the target region and the uptake in the cerebellum: increased up to; for time of peak of specific binding in Putamen: uptake of the putamen minus the cerebellum
# Method: as §4, §5, §6
# as §2, with “(v3.2PMOD” for “(v3.1 PMOD”, “13, 14, 15, 16, 17, 18, 19” for “3, 4, 5, 6, 7, 8, 9”, “20.” for “10.”
# [6] = Plasma metabolite analysis (parent fraction) during PET, [18F]compound; assay type: in vivo, cynomolgus monkeys; settings: venous plasma, i.v.
# Method: as §5, §6
# as §2, with “(v3.2PMOD” for “(v3.1 PMOD”, “13, 14, 15, 16, 17, 18, 19” for “3, 4, 5, 6, 7, 8, 9”, “20.” for “10.”
# [7] = system: Human PDE1A, 2A3, 3A, 4D2, 5A1, 6AB, 7B, 8A1, 9A2, and 11A4 enzymes; assay: PDE family enzyme inhibition selectivity assay (SPA); assay type: biochemical; settings: ratio of IC50 for each PDE other than PDE10A to IC50 for PDE10A
# Method: The PDE10A IC50 is a measure of the ability of the test compound to inhibit the action of the PDE10A enzyme. To determine the selectivity of the test compounds for PDE10A, the IC50 of the compound was determined for PDEs 1-9, and 11.
# Human PDE1A, 3A, 4D2, 5A1, 7B, 8A1, 9A2, and 11A4 enzymes were purchased from BPS Bioscience. Human PDE6AB enzyme was purchased from Scottish Biomedical. Human PDE2A3 was generated from Sf9 transfected with the full-length gene in house. PDE activities were measured using a SPA (Scintillation Proximity Assay) (PerkinElmer). To evaluate the inhibitory activity, 10 μL of serial diluted compounds were incubated with 20 μL of PDE enzyme in assay buffer (50 mM HEPES-NaOH, 8.3 mM MgCl2, 1.7 mM EGTA, 0.1% BSA (pH 7.4)) for 30 min. at room temperature. Final concentration of DMSO in the assay was 1% as compounds were tested in duplicate in 96-well half-area plates (Corning). To start the reaction, 10 μL of substrate [^3H] cGMP (PerkinElmer) for PDE1A, 2A3, 5A1, 6AB, 9A2, and 11A4 or [^3H] cAMP (PerkinElmer) for PDE3A, 4D2, 7B, and 8A1 was added for a final assay volume of 40 μL. After 60 min incubation at room temperature, yttrium SPA beads containing zinc sulphate were added (20 μL at 6 mg/mL) to terminate the PDE reaction. After being settled for 60 min., assay plates were counted in a scintillation counter (PerkinElmer) to allow calculation of inhibition rate. IC50 values were calculated on the basis of 0% control wells with DMSO and 100% control wells without enzyme. Selectivity was defined as the ratio of IC50 for each PDE other than PDE10A to IC50 for PDE10A.
# [8] = target: Human PDE10A enzyme (Homo sapiens (Human), UniProt Q9Y233); assay: PDE10A enzyme inhibition (SPA, [3H]cGMP); assay type: biochemical; settings: unlabeled compound
# Sequence of Human PDE10A enzyme (Q9Y233 267-1055): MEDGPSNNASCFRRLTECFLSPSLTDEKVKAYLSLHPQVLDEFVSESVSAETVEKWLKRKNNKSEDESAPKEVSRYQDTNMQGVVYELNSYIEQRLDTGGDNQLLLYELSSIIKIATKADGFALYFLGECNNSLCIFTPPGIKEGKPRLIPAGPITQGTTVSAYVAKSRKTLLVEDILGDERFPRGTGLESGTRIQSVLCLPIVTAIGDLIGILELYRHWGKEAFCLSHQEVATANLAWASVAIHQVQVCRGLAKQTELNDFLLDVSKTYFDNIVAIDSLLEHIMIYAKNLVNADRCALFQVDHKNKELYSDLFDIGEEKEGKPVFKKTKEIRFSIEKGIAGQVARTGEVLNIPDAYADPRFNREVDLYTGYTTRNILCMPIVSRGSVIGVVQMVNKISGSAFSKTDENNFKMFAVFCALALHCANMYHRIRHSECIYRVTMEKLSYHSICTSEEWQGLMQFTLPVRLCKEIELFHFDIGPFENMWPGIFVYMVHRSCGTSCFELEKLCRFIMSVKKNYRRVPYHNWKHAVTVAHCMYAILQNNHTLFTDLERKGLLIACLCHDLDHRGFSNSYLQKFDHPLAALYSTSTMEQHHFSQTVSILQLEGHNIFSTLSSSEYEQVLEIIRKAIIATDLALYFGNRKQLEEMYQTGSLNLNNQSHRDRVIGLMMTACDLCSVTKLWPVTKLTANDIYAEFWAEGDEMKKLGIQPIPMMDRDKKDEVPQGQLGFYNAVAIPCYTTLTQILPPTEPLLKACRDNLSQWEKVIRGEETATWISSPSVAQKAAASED
# Method: Many of the compounds within the present invention had activity in inhibiting the human PDE10A enzyme in the aforementioned assay, generally with an […] of less than about 0.1 μM. Such a result is indicative of the intrinsic activity of the compounds in use as inhibitors of the PDE10A enzyme.
# Human PDE10A enzyme was generated from Sf9 or COS-7 cells transfected with the full-length gene. Cloned enzyme was extracted from homogenized cell pellets. The extracted enzyme from sf9 cells was partially purified using His-tag affinity column. The enzyme was stored at −70° C. until use. PDE activity was measured using a SPA (Scintillation Proximity Assay) (GE Healthcare). To evaluate the inhibitory activity, 10 μL of serial diluted compounds were incubated with 20 μL of PDE enzyme in assay buffer (50 mM HEPES-NaOH, 8.3 mM MgCl2, 1.7 mM EGTA, 0.1% BSA (pH 7.4)) for 30 min. at room temperature. Final concentration of DMSO in the assay was 1% as compounds were tested in duplicate in 96-well half-area plates (Corning). To start the reaction, 10 μL of substrate [^3H] cGMP (25 or 50 nM; enclosed in SPA kits from GE Healthcare or purchased from PerkinElmer, respectively) was added for a final assay volume of 40 μL. After 60 min incubation at room temperature, yttrium SPA beads containing zinc sulphate were added (20 μL at 6 mg/mL) to terminate the PDE reaction. After being settled for 60 min., assay plates were counted in a scintillation counter (PerkinElmer) to allow calculation of inhibition rate. IC50 values were calculated on the basis of 0% control wells with DMSO and 100% control wells without enzyme.
compound,measurement,setting,value
[11CH3]Oc1cn(-c2ccc(N3CC(F)(F)C3)cc2F)nc(-c2ccnn2-c2ccccc2)c1=O [Example 2],fraction of parent compound,[1]; at 30 min,70-76%
same,fraction of parent compound,[1]; at 90 min,52-58%
same,regional brain uptake,[2],"Putamen showed highest uptake, followed by Caudate, Nuclear Accumbens and Thalamus"
same,time at which whole brain uptake decreased to half,[2],60 to 66 min
same,time at which whole brain uptake reached peak,[2],2.5 to 7.5 min
same,whole brain uptake at the peak,[2],3.3-5.1 % ID
same,ratio of the specific binding between the uptake in the target region and the uptake in the cerebellum,[3],2.5-2.7
same,time of peak of specific binding in Putamen,[3],48 min
"[11CH3]Oc1cn(-c2ccc(C3CCOCC3)cc2F)nc(-c2ccnn2-c2ccccc2)c1=O [Example 3, 1-[2-Fluoro-4-(tetrahydro-2H-pyran-4-yl)phenyl]-5-[^11C]methoxy-3-(1-phenyl-1H-pyrazol-5-yl)pyridazin-4(1H)-one]",fraction of parent compound,[1]; at 30 min,56-57%
same,fraction of parent compound,[1]; at 90 min,45-53%
same,regional brain uptake,[2],"Putamen showed highest uptake, followed by Caudate, Nuclear Accumbens and Thalamus"
same,time at which whole brain uptake decreased to half,[2],30 min
same,time at which whole brain uptake reached peak,[2],2 min
same,whole brain uptake at the peak,[2],3.3-4.1 % ID
same,ratio of the specific binding between the uptake in the target region and the uptake in the cerebellum,[3],approximately six
same,time of peak of specific binding in Putamen,[3],42 min
"[2H]C([2H])(F)Oc1cn(-c2ccc(C3CCOCC3)cc2F)nc(-c2ccnn2-c2ccccc2)c1=O [Example 119, 5-([^18F]fluoro-methyloxy-d2)-1-(2-fluoro-4-(tetrahydro-2H-pyran-4-yl)phenyl)-3-(1-phenyl-1H-pyrazol-5-yl)pyridazin-4(1H)-one]",regional brain uptake,[4],"Putamen showed highest uptake, followed by Caudate, Nuclear Accumbens and Thalamus"
same,time at which whole brain uptake decreased to half,[4],23 min
same,time at which whole brain uptake reached peak,[4],2.5 min
same,whole brain uptake at the peak,[4],5.2-5.7 % ID
same,ratio of the specific binding between the uptake in the target region and the uptake in the cerebellum,[5]; during 47-65 min PET measurements,3.0-3.9
same,time of peak of specific binding in Putamen,[5],18.5 to 29 min
same,fraction of parent compound,[6]; at 60 min,62-71%
same,fraction of parent compound,[6]; at 180 min,60-63%
"[2H]C([2H])(F)C([2H])([2H])Oc1cn(-c2ccc(C3CCOCC3)cc2F)nc(-c2ccnn2-c2ccccc2)c1=O [Example 120, 5-(2-[^18F]fluoro-ethyloxy-d4)-1-(2-fluoro-4-(tetrahydro-2H-pyran-4-yl)phenyl)-3-(1-phenyl-1H-pyrazol-5-yl)pyridazin-4(1H)-one]",regional brain uptake,[4],"Putamen showed highest uptake, followed by Caudate, Nuclear Accumbens and Thalamus"
same,time at which whole brain uptake decreased to half,[4],23 to 35 min
same,time at which whole brain uptake reached peak,[4],2.5 to 4.5 min
same,whole brain uptake at the peak,[4],3.6 % ID
same,ratio of the specific binding between the uptake in the target region and the uptake in the cerebellum,[5]; during 65-75 min PET measurements,1.5-1.9
same,time of peak of specific binding in Putamen,[5],35 to 41 min
same,fraction of parent compound,[6]; at 60 min,64-74%
same,fraction of parent compound,[6]; at 180 min,51-72%
"COc1cn(-c2ccc(C3CCOCC3)cc2F)nc(-c2ccnn2-c2ccccc2)c1=O [Reference Example 16, 1-[2-Fluoro-4-(tetrahydro-2H-pyran-4-yl)phenyl]-5-methoxy-3-(1-phenyl-1H-pyrazol-5-yl)pyridazin-4(1H)-one]",Selectivity over other PDEs,[7],>1000-fold
same,IC50,[8],< 1 nM
"COc1cn(-c2ccc(N3CC(F)(F)C3)cc2F)nc(-c2ccnn2-c2ccccc2)c1=O [Reference Example 18, 1-[4-(3,3-Difluoroazetidin-1-yl)-2-fluorophenyl]-5-methoxy-3-(1-phenyl-1H-pyrazol-5-yl)pyridazin-4(1H)-one]",Selectivity over other PDEs,[7],>1000-fold
same,IC50,[8],< 1 nM
"[2H]C([2H])(F)Oc1cn(-c2ccc(C3CCOCC3)cc2F)nc(-c2ccnn2-c2ccccc2)c1=O [Reference Example 122, 5-(Fluoromethoxy-d2)-1-{2-fluoro-4-(tetrahydro-2H-pyran-4-yl)phenyl}-3-(1-phenyl-1H-pyrazol-5-yl)pyridazin-4(1H)-one]",Selectivity over other PDEs,[7],>1000-fold
same,IC50,[8],< 10 nM
"[2H]C([2H])(F)C([2H])([2H])Oc1cn(-c2ccc(C3CCOCC3)cc2F)nc(-c2ccnn2-c2ccccc2)c1=O [Reference Example 123, 5-(2-Fluoroethoxy-d4)-1-{2-fluoro-4-(tetrahydro-2H-pyran-4-yl)phenyl}-3-(1-phenyl-1H-pyrazol-5-yl)pyridazin-4(1H)-one]",Selectivity over other PDEs,[7],>100-fold
same,IC50,[8],< 10 nM
